Earlier results on 2 compounds are cited in patent US20050261237A1, “Nucleoside phosphonate analogs” (priority 2003, published 2005).

Data set [1] has as its target PNP enzyme from Mycobacterium tuberculosis (MtPNP) (Mycobacterium tuberculosis, UniProt P9WP01). The settings on record: Lewandowics A. et al., Biochemistry (2003) 42, 6057.
The subject of another data set is HIV. The settings on record: described in the literature; 61.1 with Base=G.

PNP enzyme from Mycobacterium tuberculosis (MtPNP), sequence (P9WP01 whole entry): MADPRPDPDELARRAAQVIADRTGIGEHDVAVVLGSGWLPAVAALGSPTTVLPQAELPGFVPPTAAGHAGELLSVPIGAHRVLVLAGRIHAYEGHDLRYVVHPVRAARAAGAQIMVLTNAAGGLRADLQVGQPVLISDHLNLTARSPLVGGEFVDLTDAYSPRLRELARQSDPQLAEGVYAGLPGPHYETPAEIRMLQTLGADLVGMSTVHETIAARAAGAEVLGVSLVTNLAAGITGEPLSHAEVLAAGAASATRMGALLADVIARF

With `Nc1nc2c(CN3C[C@H](CO)[C@@H](O)C3)c[nH]c2c(=O)[nH]1` [DADMe-ImmG], in data set [1], the “inhibition of the PNP enzyme from Mycobacterium tuberculosis (MtPNP)” value is “highly potent”.

In the case of `Nc1nc(=O)c2ncn([C@@H]3C[C@H](CO)[C@H]3CO)c2[nH]1` [lubocavir], in the data set with HIV, the anti-HIV activity was 30 µM.
